Marks after values point to notes of the source that are not given here.
Tested on: T-iPS-T cells
Assay: Number of viable T-iPS-T cells under feeder-free culture (CD3/CD28 Dynabeads, Cell Count Reagent SF, absorbance 450 nm/650 nm)
Format: cell-based, human
Settings: T-iPS-T cells after 1st expansion, 6 days, DMSO control 0.225 ± 0.017
Method: T-iPS-T cells (1,500 cells/well) after 1st expansion were seeded and cultured in RPMI-1640 medium (SIGMA, R8758) supplemented with 15% FBS (CORNING, 35-076-CV, 35076104R), 1% PSG (SIGMA, G1146), PAA (50 μg/mL, Nacalai Tesque, 03420-52), ITS-G, IL-7 (5 ng/mL), IL-12 (50 ng/mL), IL-15 (5 ng/mL), IL-18 (50 ng/mL), IL-21 (20 ng/mL), and z-VAD-fmk (10 μM). The cells were stimulated by adding CD3/CD28 Dynabeads (Gibco, 11131D, the “Dynabeads” is a registered trademark) (4,500 beads/well) thereto, and 1,080 compounds [MedChemExpress, Apoptosis Compound Library (HY-L003), Cell Cycle/DNA Damage Compound Library (HY-L004), JAK/STAT Compound Library (HY-L008), MAPK Compound Library (HY-L010), NF-kappaB Compound Library (HY-L014), PI3K/Akt/mTOR Compound Library (HY-L015), and Wnt/Hedgehog/Notch Compound Library (HY-L020)] were added thereto (one type per well) at a final concentration of 1 μM, and then, the cells were cultured at 37° C. under 5% CO2.
DMSO (0.1%) that is a solvent for the compound was used as a control. After 6 days, the number of viable cells was measured using Cell Count Reagent SF (Nacalai Tesque, 07553) and a microplate reader (SoftMax Pro 5.X, Molecular Devices, 450 nm/650 nm).
A calibration curve for cell number was set as follows. When measuring the number of viable cells, 12-point serial dilution was performed for the same cells as those used in the screening, and the cells were seeded (0 to 1,536,000 cells/well) in RPMI-1640 medium supplemented with 15% FBS, 1% PSG, PAA, ITS-G, IL-7 (5 ng/mL) and IL-15 (5 ng/mL). The number of viable cells was measured together with the screening samples, and a calibration curve for WST-8 assay was formed.
In order to further evaluate the results obtained in Example 4, reproducibility was evaluated. As a method therefor, the same method as in Example 4 was used to carry out culturing and evaluation. As compounds, 20 compounds were selected and used among the compounds used in Example 4 including berbamine, and DMSO (0.1%) that is a solvent for the compound was used as a control. Note that in a statistical analysis, a Student's t-test was used (*: p<0.05).
The effect of a berbamine derivative on the proliferation of T cells was verified. As a method therefor, T-iPS-T cells after 1st expansion were cultured in the same manner as in Example 4, and berbamine (BBM) or each of 13 types of derivatives [BBMD1 to 13, Hebei Sundia MediTech Company Ltd.] was added thereto (one type per well) at a final concentration of 0.1 nM, 1 nM, 10 nM, 100 nM, or 1 μM, and then, the cells were cultured at 37° C. under 5% CO2. DMSO (0.1%) that is a solvent for the compound was used as a control.
After culturing for 6 days, the number of viable cells was measured using Cell Count Reagent SF (Nacalai Tesque, 07553) and a microplate reader (SoftMax Pro 5. X, Molecular Devices, 450 nm/650 nm), and the OD value was used as data. Note that in a statistical analysis, a Student's t-test was used (*: p<0.05). 1.

COc1cc2c3cc1Oc1c(OC)c(OC)cc4c1C(Cc1ccc(OS(=O)(=O)c5ccccc5)c(c1)Oc1ccc(cc1)CC3N(C)CC2)N(C)CC4 (stereo not shown) [BBMD1]
number of viable cells (OD value) (0.1 nM): 0.257 ± 0.024 | number of viable cells (OD value) (1 nM): 0.268 ± 0.009 * | number of viable cells (OD value) (10 nM): 0.289 ± 0.033 * | number of viable cells (OD value) (100 nM): 0.415 ± 0.039 ** | number of viable cells (OD value) (1 μM): 0.529 ± 0.101 **

COc1cc2c3cc1Oc1c(OC)c(OC)cc4c1C(Cc1ccc(CCCCBr)c(c1)Oc1ccc(cc1)CC3N(C)CC2)N(C)CC4 (stereo not shown) [BBMD2]
number of viable cells (OD value) (1 nM): 0.269 ± 0.059 | number of viable cells (OD value) (10 nM): 0.295 ± 0.028 * | number of viable cells (OD value) (100 nM): 0.437 ± 0.059 ** | number of viable cells (OD value) (1 μM): 0.493 ± 0.036 ***

COc1cc2c3cc1Oc1c(OC)c(OC)cc4c1C(Cc1ccc(OCc5ccc([N+](=O)[O-])cc5)c(c1)Oc1ccc(cc1)CC3N(C)CC2)N(C)CC4 (stereo not shown) [BBMD3]
number of viable cells (OD value) (0.1 nM): 0.245 ± 0.013 | number of viable cells (OD value) (1 nM): 0.298 ± 0.021 * | number of viable cells (OD value) (10 nM): 0.325 ± 0.077^ | number of viable cells (OD value) (100 nM): 0.581 ± 0.025 **** | number of viable cells (OD value) (1 μM): 0.195 ± 0.002

COc1cc2c3cc1Oc1c(OC)c(OC)cc4c1C(Cc1ccc(OC(=O)C(C)(C)C)c(c1)Oc1ccc(cc1)CC3N(C)CC2)N(C)CC4 (stereo not shown) [BBMD4]
number of viable cells (OD value) (0.1 nM): 0.234 ± 0.024 | number of viable cells (OD value) (1 nM): 0.245 ± 0.037 | number of viable cells (OD value) (10 nM): 0.286 ± 0.019 * | number of viable cells (OD value) (100 nM): 0.470 ± 0.023 *** | number of viable cells (OD value) (1 μM): 0.470 ± 0.053 **

COc1cc2c3cc1Oc1c(OC)c(OC)cc4c1C(Cc1ccc(OC(=O)c5cc6ccccc6[nH]5)c(c1)Oc1ccc(cc1)CC3N(C)CC2)N(C)CC4 (stereo not shown) [BBMD5]
number of viable cells (OD value) (0.1 nM): 0.246 ± 0.001 | number of viable cells (OD value) (1 nM): 0.245 ± 0.016 | number of viable cells (OD value) (10 nM): 0.285 ± 0.032 * | number of viable cells (OD value) (100 nM): 0.477 ± 0.064 ** | number of viable cells (OD value) (1 μM): 0.186 ± 0.001

COc1cc2c3cc1Oc1c(OC)c(OC)cc4c1C(Cc1ccc(OC(=O)c5ccc(Br)cc5)c(c1)Oc1ccc(cc1)CC3N(C)CC2)N(C)CC4 (stereo not shown) [BBMD6]
number of viable cells (OD value) (0.1 nM): 0.248 ± 0.019 | number of viable cells (OD value) (1 nM): 0.248 ± 0.016 | number of viable cells (OD value) (10 nM): 0.290 ± 0.023 * | number of viable cells (OD value) (100 nM): 0.472 ± 0.077 ** | number of viable cells (OD value) (1 μM): 0.208 ± 0.004

COc1cc2c3cc1Oc1c(OC)c(OC)cc4c1C(Cc1ccc(CCCCN5CCCC5)c(c1)Oc1ccc(cc1)CC3N(C)CC2)N(C)CC4 (stereo not shown) [BBMD7]
number of viable cells (OD value) (0.1 nM): 0.230 ± 0.018 | number of viable cells (OD value) (1 nM): 0.266 ± 0.013 * | number of viable cells (OD value) (10 nM): 0.258 ± 0.024^ | number of viable cells (OD value) (100 nM): 0.346 ± 0.041 ** | number of viable cells (OD value) (1 μM): 0.550 ± 0.026 ****

COc1cc2c3cc1Oc1c(OC)c(OC)cc4c1C(Cc1ccc(OC(=O)CCNC(=O)OC(C)(C)C)c(c1)Oc1ccc(cc1)CC3N(C)CC2)N(C)CC4 (stereo not shown) [BBMD8]
number of viable cells (OD value) (0.1 nM): 0.268 ± 0.022 * | number of viable cells (OD value) (1 nM): 0.227 ± 0.028 | number of viable cells (OD value) (10 nM): 0.261 ± 0.029^ | number of viable cells (OD value) (100 nM): 0.326 ± 0.051 * | number of viable cells (OD value) (1 μM): 0.462 ± 0.027 ***

COc1cc2c3cc1Oc1c(OC)c(OC)cc4c1C(Cc1ccc(OCCCN)c(c1)Oc1ccc(cc1)CC3N(C)CC2)N(C)CC4 (stereo not shown) [BBMD9]
number of viable cells (OD value) (0.1 nM): 0.264 ± 0.030 | number of viable cells (OD value) (1 nM): 0.255 ± 0.004 * | number of viable cells (OD value) (10 nM): 0.221 ± 0.017^ | number of viable cells (OD value) (100 nM): 0.268 ± 0.020 * | number of viable cells (OD value) (1 μM): 0.328 ± 0.016**

COc1ccc(C(=O)NCCCOc2ccc3cc2Oc2ccc(cc2)CC2c4cc(c(OC)cc4CCN2C)Oc2c(OC)c(OC)cc4c2C(C3)N(C)CC4)cc1 (stereo not shown) [BBMD10]
number of viable cells (OD value) (0.1 nM): 0.255 ± 0.013 | number of viable cells (OD value) (1 nM): 0.274 ± 0.007 ** | number of viable cells (OD value) (10 nM): 0.295 ± 0.023 * | number of viable cells (OD value) (100 nM): 0.494 ± 0.038 *** | number of viable cells (OD value) (1 μM): 0.301 ± 0.008 **

COc1cc2c3cc1Oc1c(OC)c(OC)cc4c1C(Cc1ccc(OCCCNC(=O)c5ccc(-c6ccc(C=O)cc6)cc5)c(c1)Oc1ccc(cc1)CC3N(C)CC2)N(C)CC4 (stereo not shown) [BBMD11]
number of viable cells (OD value) (0.1 nM): 0.270 ± 0.099 | number of viable cells (OD value) (1 nM): 0.242 ± 0.046 | number of viable cells (OD value) (10 nM): 0.300 ± 0.081^ | number of viable cells (OD value) (100 nM): 0.425 ± 0.079 * | number of viable cells (OD value) (1 μM): 0.239 ± 0.076

COc1cc2c3cc1Oc1c(OC)c(OC)cc4c1C(Cc1ccc(OCCCNC(=O)c5cscn5)c(c1)Oc1ccc(cc1)CC3N(C)CC2)N(C)CC4 (stereo not shown) [BBMD12]
number of viable cells (OD value) (0.1 nM): 0.185 ± 0.072 | number of viable cells (OD value) (1 nM): 0.234 ± 0.027 | number of viable cells (OD value) (10 nM): 0.235 ± 0.010^ | number of viable cells (OD value) (100 nM): 0.257 ± 0.008 * | number of viable cells (OD value) (1 μM): 0.561 ± 0.035 ***

COc1cc2c3cc1Oc1c(OC)c(OC)cc4c1C(Cc1ccc(OC(=O)c5ccccc5)c(c1)Oc1ccc(cc1)CC3N(C)CC2)N(C)CC4 (stereo not shown) [BBMD13]
number of viable cells (OD value) (0.1 nM): 0.253 ± 0.022 | number of viable cells (OD value) (1 nM): 0.292 ± 0.001 ** | number of viable cells (OD value) (10 nM): 0.260 ± 0.011 * | number of viable cells (OD value) (100 nM): 0.412 ± 0.085 * | number of viable cells (OD value) (1 μM): 0.288 ± 0.041

Reference: patent publication US12168781B2, “Production method for T cells or NK cells, medium for culturing T cells or NK cells, method for culturing T cells or NK cells, method for maintaining undifferentiated state of undifferentiated T cells, and growth-accelerating agent for T cells or NK cells” (KIRIN HOLDINGS KABUSHIKI KAISHA, priority 2018, dated 2024)
